# Test results taken from patent US10231986B2, “Amino acid phosphoramidate pronucleotides of 2′-cyano, azido and amino nucleosides for the treatment of HCV” (Centre National De La Recherche Scientifique, priority 2013, dated 2019).
# Where two headings read alike, the source gives them in different places.
# Columns and labels:
# [1] = tested on: HCV genotype 1b replicon in Huh-7-derived cell line (Zluc); experiment: HCV replicon assay (luciferase reporter); type: cell-based
# Procedure: Huh-7-derived cell line (Zluc) that harbors an HCV genotype 1b replicon and a luciferase reporter gene was grown in Dulbecco's Modified Eagle Medium (DMEM) supplemented with 10% fetal bovine serum, 2 mM GlutaMAX, 1% MEM nonessential amino acids, 100 IU/mL penicillin, 100 μg/mL streptomycin, and 0.5 mg/mL Geneticin® (G418). For dose response testing the cells were seeded in 96-well plates at 7.5×10^3 cells per well in a volume of 50 μL, and incubated at 37° C./5% CO2. Drug solutions were made up freshly in Huh-7 media as 2× stocks. Ten additional 5-fold dilutions were prepared from these stocks in DMEM without G418. At least three hours after Zluc cells were seeded, drug treatment was initiated by adding 50 μL of drug dilutions to the plates in duplicate. Final concentrations of drug ranged from 100 μM to […]. Cells were then incubated at 37° C./5% CO2. Alternatively, compounds were tested at two concentrations (1 μM and 10 μM). […] For this, media was removed from the plates via gentle tapping. Fifty microliters of ONE-glo luciferase assay reagent was added to each well. The plates were shaken gently for 3 min at room temperature and luminescence was measured on a Victor^3 V 1420 multilabel counter (Perkin Elmer) with a 1 second read time using a 700 nm cut-off filter. The EC50 values were calculated from dose response curves from the resulting best-fit equations determined by Microsoft Excel and XLfit 4.1 software. When screening at two fixed concentrations, the results were expressed as % inhibition at 1 μM and 10 μM.
# [2] = Cytotoxicity evaluation, CellTiter-Blue Cell Viability Assay; details: human
# Zluc cells = experiment: as above; details: read-out: HCV Replicon CC50; Zluc cells, CellTiter-Blue
# [3] = target: T1, wild-type HCV genotype 1b NS5B protein (recombinant HCV polymerase) (Hepatitis C virus genotype 1b, UniProt Q9WMX2); experiment: HCV polymerase enzyme assay, wild-type; type: biochemical
# T1 construct: approximately 65 kDa HCV genotype 1b NS5B protein were used to generate recombinant HCV polymerases; made in house
# Source text: (§1) Test compounds in the form of nucleoside triphosphates were examined for inhibitory activity against purified HCV polymerase in a standard assay. Bacterial expression constructs encoding the approximately 65 kDa HCV genotype 1b NS5B protein were used to generate recombinant HCV polymerases (with a deletion of the 21 carboxy terminal amino acids). Both the wild-type genotype 1b protein and protein containing the S282T mutation were expressed and purified for use in the enzymatic activity assay.
# (§2) The enzymatic activity assay measured the inhibitory effect of increasing concentrations of test compound on the incorporation of α-[^33P]-labeled nucleotide into trichloroacetic acid-precipitable material. Recombinant polymerase and synthetic RNA template were combined in reaction buffer containing ribonucleoside triphosphates, α-[^33P]-labeled nucleotide and eight concentrations of test compound in three-fold dilutions. Reactions were incubated for two hours at 30° C.
# (§3) Reactions were terminated by the addition of ice-cold trichloroacetic acid and sodium pyrophosphate to promote precipitation of newly-synthesized ribonucleic acid. Precipitable material from the reactions was collected by filtration onto 96-well filter plates, washed extensively with water, and quantified by liquid scintillation.
# (§4) The inhibitory activity of test compounds was determined by fitting results to dose-response curves using XLfit software.
# [4] = target: T2, HCV genotype 1b NS5B protein containing the S282T mutation (Hepatitis C virus genotype 1b, UniProt Q9WMX2, S2701T); experiment: HCV polymerase enzyme assay, S282T mutant; type: biochemical
# T2 construct: approximately 65 kDa HCV genotype 1b NS5B protein were used to generate recombinant HCV polymerases; made in house
# Source text: as §1, §2, §3, §4
# [5] = Hepatitis C virus, 72 h, read-out: HCV Replicon EC50, Zluc cells, genotype 1b replicon, 72 hours of incubation
# [6] = Hepatitis C virus, 72 h, Zluc cells, genotype 1b replicon, 72 hours of incubation, read-out: HCV Replicon EC50
# [7] = Zluc cells, genotype 1b replicon, 72 hours of incubation, read-out: HCV Replicon EC50
# [8] = Zluc cells (HCV replicon cells)
Structure (SMILES),CC50 at 72 h [2] [µM],"EC50 [1, 6] [µM]",IC50 [3] [µM],further results
CC(C)OC(=O)[C@H](C)NP(=O)(OC[C@H]1O[C@@H](n2ccc(N)nc2=O)[C@H](N=[N+]=[N-])[C@@H]1O)Oc1ccccc1 (mixture of isomers) [Compound 530 Diastereomer Mix],> 50,,,"EC50 [1, 5]: > 10 µM"
"CC(C)OC(=O)[C@H](C)NP(=O)(OC[C@H]1O[C@@H](n2ccc(=O)[nH]c2=O)[C@H](N)[C@@H]1O)Oc1ccccc1 (single isomer, unassigned) [Compound 526 Diastereomer 1]",> 50,> 10,,
"CC(C)OC(=O)[C@H](C)NP(=O)(OC[C@H]1O[C@@H](n2ccc(=O)[nH]c2=O)[C@H](N)[C@@H]1O)Oc1ccccc1 (single isomer, unassigned) [Compound 526 Diastereomer 2]",,,,"EC50 [1, 7]: > 10 µM; CC50 (Zluc cells): > 50 µM"
"CC(C)OC(=O)[C@H](C)NP(=O)(OC[C@H]1O[C@@H](n2ccc(=O)[nH]c2=O)[C@H](N=[N+]=[N-])[C@@H]1O)Oc1ccccc1 (single isomer, unassigned) [Compound 528 Diastereomer 1]",> 50,> 10,,
"CC(C)OC(=O)[C@H](C)NP(=O)(OC[C@H]1O[C@@H](n2ccc(=O)[nH]c2=O)[C@H](N=[N+]=[N-])[C@@H]1O)Oc1ccccc1 (single isomer, unassigned) [Compound 528 Diastereomer 2]",,,,"EC50 [1, 7]: > 10 µM; CC50 (Zluc cells): > 50 µM"
"CC(C)OC(=O)[C@H](C)NP(=O)(OC[C@H]1O[C@@H](n2ccc(N)nc2=O)[C@H](N=[N+]=[N-])[C@@H]1O)Oc1ccccc1 (single isomer, unassigned) [Compound 530 Diastereomer 1]",> 50,,,"EC50 [1, 5]: > 10 µM"
"CC(C)OC(=O)[C@H](C)NP(=O)(OC[C@H]1O[C@@H](n2ccc(N)nc2=O)[C@H](N)[C@@H]1O)Oc1ccccc1 (single isomer, unassigned) [Compound 531 Diastereomer 1]",> 50,,,"EC50 [1, 5]: > 10 µM"
"CC(C)OC(=O)[C@H](C)NP(=O)(OC[C@H]1O[C@@H](n2ccc(=O)[nH]c2=O)[C@](C)(N=[N+]=[N-])[C@@H]1O)Oc1ccccc1 (single isomer, unassigned) [Reference Compound A18 Diastereomer 1, reference compound]",> 50,> 10,,
"CC(C)OC(=O)[C@H](C)NP(=O)(OC[C@H]1O[C@@H](n2ccc(=O)[nH]c2=O)[C@](C)(N)[C@@H]1O)Oc1ccccc1 (single isomer, unassigned) [Reference Compound A19 Diastereomer 1, reference compound]",> 50,,,"EC50 [1, 7]: > 10 µM"
"CC(C)OC(=O)[C@H](C)NP(=O)(OC[C@H]1O[C@@H](n2ccc(=O)[nH]c2=O)[C@](C)(N)[C@@H]1O)Oc1ccccc1 (single isomer, unassigned) [Reference Compound A19 Diastereomer 2, reference compound]",,,,"EC50 [1, 7]: 1 to 10 µM; CC50 (Zluc cells): > 50 µM"
CC(C)OC(=O)[C@@H](C)N[P@@](=O)(OC[C@H]1O[C@@H](n2ccc(N)nc2=O)[C@](C)(C#N)[C@@H]1O)Oc1ccccc1 [Compound 1a],> 50,> 10,,
C[C@@]1(N=[N+]=[N-])[C@H](O)[C@@H](COP(=O)(O)OP(=O)(O)OP(=O)(O)O)O[C@H]1n1cnc2c(N)ncnc21 [Compound 201],,,0.25 to 1,IC50 [4]: > 10 µM
C[C@@]1(N=[N+]=[N-])[C@H](O)[C@@H](COP(=O)(O)OP(=O)(O)OP(=O)(O)O)O[C@H]1n1ccc(=O)[nH]c1=O [Compound 202],,,0.25 to 1,IC50 [4]: > 10 µM
C[C@@]1(N)[C@H](O)[C@@H](COP(=O)(O)OP(=O)(O)OP(=O)(O)O)O[C@H]1n1ccc(=O)[nH]c1=O [Compound 203],,,1 to 10,IC50 [4]: > 10 µM
C[C@@]1(C#N)[C@H](O)[C@@H](COP(=O)(O)OP(=O)(O)OP(=O)(O)O)O[C@H]1n1ccc(=O)[nH]c1=O [Compound 204],,,< 0.25,IC50 [4]: 1 to 10 µM
C[C@@]1(C#N)[C@H](O)[C@@H](COP(=O)(O)OP(=O)(O)OP(=O)(O)O)O[C@H]1n1ccc(N)nc1=O [Compound 205],,,0.25 to 1,
C[C@@]1(N)[C@H](O)[C@@H](COP(=O)(O)OP(=O)(O)OP(=O)(O)O)O[C@H]1n1ccc(N)nc1=O [Compound 206],,,1 to 10,
Nc1ccn([C@@H]2O[C@H](COP(=O)(O)OP(=O)(O)OP(=O)(O)O)[C@@H](O)[C@H]2N)c(=O)n1 [Compound 207],,,0.25 to 1,
C[C@@]1(N)[C@H](O)[C@@H](COP(=O)(O)OP(=O)(O)OP(=O)(O)O)O[C@H]1n1cnc2c(N)ncnc21 [Compound 208],,,1 to 10,IC50 [4]: > 10 µM
"C[C@]1(N=[N+]=[N-])C(n2cnc3c(N)ncnc32)O[C@H](CO)[C@H]1O (stereo partly shown) [Reference Compound 101, reference compound]",,> 10,,"CC50 at 72 h [2, 8]: > 50 µM"
"C[C@@]1(N=[N+]=[N-])[C@H](O)[C@@H](CO)O[C@H]1n1ccc(=O)[nH]c1=O [Reference Compound 102, reference compound]",,> 10,,"CC50 at 72 h [2, 8]: > 50 µM"
"C[C@@]1(N)[C@H](O)[C@@H](CO)O[C@H]1n1ccc(=O)[nH]c1=O [Reference Compound 103, reference compound]",,> 10,,"CC50 at 72 h [2, 8]: > 50 µM"
"CC1(C#N)C(O)C(CO)OC1n1ccc(N)nc1=O (stereo not shown) [Reference Compound A9b, reference compound]",,,,"EC50 [1, 7]: 1 to 10 µM; CC50 (Zluc cells): > 50 µM"
